# From patent publication US11930815B1, “3,3′-(piperazine-1,4-diyl)bis(1-(naphthalen-2-yloxy)propan-2-ol) as insecticidal agent” (priority 2023, dated 2024)
# Read-outs that look alike come from different tables or passages of the source.
# What was measured:
# [1] = test system: 4th instars of larvae of Spodoptera littoralis; assay: Insecticidal bioassay screening, castor leaf dip, 4th instar larvae; type: in vivo; settings: for Toxic ratio: 4th larvae, fenoxycarb's LC50/the compound's LC50 × 100
# Protocol: (§1) Five concentrations (200, 100, 50, 25, 12.5 ppm) were designed for this synthetic compound and the reference fenoxycarb compound as the dynamic ingredients based on ppm via diluting the commercial formulation.
# (§2) In this experiment, castor leaves are immersed in each of the previously prepared concentrations of the components for 10 seconds and then left to dry for 60 minutes. Larvae of the second and fourth instars of each checked strain are prepared with treated leaves in gauze-covered glass containers for 72 hrs. An untreated control is made in which leaves are dipped in triton x-100 and distilled water only. Then the preserved leaves were removed & fresh, untreated leaves were provided for 72 hours. Three replicates (10 larvae each) were checked for each concentration. Daily inspection was carried out for all treatments and mortality percentages were recorded 3 days (72 hours) after treatment. The average mortality percentage was corrected employing Abbott's formula. The corrected mortality rate for each of the previously synthesized compounds is statistically calculated according to Finney (1970). Through this rate, the corresponding concentration test lines (LDP lines) are assessed. Fifty and ninety percent mortality are determined, and the regression values for the checked products were previously evaluated.
# [2] = test system: 2nd instars of larvae of Spodoptera littoralis; assay: Insecticidal bioassay screening, castor leaf dip, 2nd instar larvae; type: in vivo; settings: for Toxic ratio: 2nd larvae, fenoxycarb's LC50/the compound's LC50 × 100
# Protocol: as §1, §2
# [3] = Spodoptera littoralis, foliar, 72 h
SMILES,LC50 ([1]; in vivo),"LC50 ([2]; 2nd instars of larvae of Spodoptera littoralis, after 72 hours of treatment)",Toxic ratio ([1]; 72 h),"LC50 [1, 3] [µg/mL]",Toxic ratio ([2]; 72 h),"LC50 ([2]; Spodoptera littoralis, foliar, 2nd larvae of S. littoralis, after 72 h of treatment, treated castor leaves, read-out: LC50) [µg/mL]","LC50 ([2]; foliar, against Spodoptera littoralis under laboratory conditions, instar not stated, read-out: LC50) [µg/mL]","activity against Spodoptera littoralis ([2]; verbal summary of Table 1, compared with fenoxycarb)","LC50 [2, 3] [µg/mL]"
"OC(COc1ccc2ccccc2c1)CN1CCN(CC(O)COc2ccc3ccccc3c2)CC1 (centres unmarked) [3,3′-(piperazine-1,4-diyl)bis(1-(naphthalen-2-yloxy)propan-2-ol)]",about 86.98 ppm,about 42.05 ppm,–,–,–,–,–,–,–
"OC(COc1ccc2ccccc2c1)CN1CCN(CC(O)COc2ccc3ccccc3c2)CC1 (centres unmarked) [Compound 9, 3,3′-(piperazine-1,4-diyl)bis(1-(naphthalen-2-yloxy)propan-2-ol)]",–,–,49.7,87,6.51,42,42,active,–
"CCOC(=O)NCCOc1ccc(Oc2ccccc2)cc1 [Fenoxycarb, reference compound]",–,–,100,–,100,–,–,–,2.73
